Laboratory results reported in publication PMC8296708, “The pan HDAC inhibitor Givinostat improves muscle function and histological parameters in two Duchenne muscular dystrophy murine models expressing different haplotypes of the LTBP4 gene” (Skeletal Muscle, 2021).

Tests used:
D2.B10 mice [1] = assay: Myofiber cross-sectional area (CSA) in D2.B10 mice; assay type: in vivo, mouse (D2.B10-Dmd^mdx/J); conditions: D2.B10 muscles, 1 mg/kg i.p. weekly
Excerpt: (§1) Tibialis anterior (TA), gastrocnemius (GAS), DIA, and heart were collected from mice maintained under isoflurane anesthesia and sacrificed by cervical dislocation. These muscles were collected from C57BL/10J wt and mdx (5 mice/group) at the end of treatments and from DBA/2J wt and D2.B10 mice (5 mice/group) at two different time points to be examined by a pathologist (for more details see Additional Table 1). Due to the results obtained by the functional tests, muscles from only some treatment groups were analyzed in both DMD models (see Additional Table 1). All the collected muscles were fixed in 10% buffered formalin solution (Bio-optica, Milan, Italy) at + 4 °C for at least 48 h. After fixation, muscular samples were transversely trimmed, caged, and paraffin embedded overnight with an Automated Vacuum Tissue Processor Floor (ETP, Histo-Line Laboratories) and included in paraffin blocks. Serial transverse cross-sections (4 μm thick) were cut with a microtome (Leica RM 2255), collected onto uncoated glass slides, and stained using a standard protocol for hematoxylin and eosin (Mayer hematoxylin & Aqueous G Eosin 1%, Bio-Optica) and Sirius Red staining (Direct Red 80, Sigma-Aldrich). For the image analysis and quantitation, hematoxylin and eosin- and Sirius Red-stained slides were examined with an Olympus BX51 light microscope. From each sample, 1 to 3 random microphotographs at the magnification of × 4 and × 10 (TA, GAS and heart) or × 20 (DIA) were collected using Image-Pro Plus system. The digital images were processed by a pathologist using ImageJ software (U.S. National Institutes of Health, Bethesda, MD, USA). To quantify CSA and centralized nuclei (%) on hematoxylin and eosin-stained sections, one hundred myofibers were manually measured for each muscle/mouse using a tablet pen (Wacom Intruos) and analyzed by the ImageJ software after a linear calibration of 150 μm. The fibrotic area, corresponding to the area stained in red, was compared to the total area of the tissue section, and the results were expressed as percentage fibrosis. The % of fibrosis of muscles in the different treatment groups was expressed by averaging the three values obtained from each muscle.
The deciles of the CSA of the animals treated with Givinostat at the different doses were plotted against the corresponding deciles of the vehicle-treated mice and a linear regression analysis was performed on natural [CSAtreated = b CSAcontrol + a] and log_transformed data [log(CSAtreated) = log(a) + b log(CSAcontrol)]. […] In case of untransformed data, this means that the effect of Givinostat treatment is additive and any decile of the CSAtreatment distribution may be derived from the control data summing up a constant quantity (S) to each fiber AREA of the control group (CSAtreated = CSAcontrol + S). In case of log_transformed data, the effect of Givinostat has to be considered as a multiplicative factor on any generic fiber of the muscle under evaluation, whose size, after the treatment, results K times larger in comparison to the control group value (CSAtreated […] = K × CSAcontrol, with K = 10^a). The S or K parameter values were then determined through an iterative estimation procedure, based on sum of squares (SSQ) minimization, directly comparing the CSA distribution observed in treated animals with that obtained summing up the S value or multiplying by K the CSA values of the control group.

D2.B10 mice [2] = assay: Muscle fibrosis by Sirius Red staining in D2.B10 mice; assay type: in vivo, mouse (D2.B10-Dmd^mdx/J)
Excerpt: as §1

D2.B10 mice [3] = assay: Grip strength test (FNmax) in D2.B10 mice; assay type: in vivo, mouse (D2.B10-Dmd^mdx/J)
Excerpt: (§2) For the efficacy studies, C57BL/10 J (Stock No: 000665) wild type (wt) and C57BL/10ScSn-Dmd^mdx/J (Stock No: 001801) 7–8-week-old male mice, DBA/2J wt (Stock No: 000671), and D2.B10-Dmd^mdx/J (Stock No: 013141) 6–7-week-old male mice were purchased from The Jackson Laboratories (Bar Harbor, Maine, USA). After 5 days of acclimatization in the animal facility, mice were randomized into different treatment groups based on their BW. C57BL/10J wt mice were assigned to the naive wt group (healthy mice that received no treatment, but were subjected to functional tests), whereas mdx mice were assigned to the following groups (9 mice/group; 4–5 mice/cage): naive mdx (mice that received no treatment, but were subjected to functional tests), vehicle (0.5% methylcellulose, p.o.), and Givinostat (0.1, 0.3, 1, 5, 10, 25, and 37.5 mg/kg, p.o.). DBA/2J mice were assigned to the naive wt group (healthy mice that received no treatment, but were subjected to functional tests), whereas D2.B10 mice were assigned to the following groups (12–13 mice/group; 4–5 mice/gage): vehicle (filtered tap water, p.o.), Givinostat (1, 5, 10, and 37.5 mg/kg, p.o.), prednisone 1 mg/kg, and Deflazacort 1 mg/kg (i.p.).
(§3) In the efficacy studies, Givinostat powder (ITF2357) was suspended in 0.5% methylcellulose (Sigma-Aldrich) and administered p.o. (by gavage) at the doses of 0.1, 0.3, 1, 5, 10, 25, and 37.5 mg/kg qdx5x15weeks (administration volume per mouse: 10 mL/kg) in mdx mice (see Additional Figure 1A). Vehicle-treated mdx mice received 0.5% methylcellulose suspension. Givinostat suspension was stored at + 4 °C, and it was freshly prepared every 7 days. Probably due to the impairment of their tongue and masticatory muscles, the oral gavage procedure turned out to be difficult to perform, and chronic treatment of D2.B10 mice by this route was considered to bear a high risk of damaging the esophagus. For this reason, Givinostat was administered in the drinking water. Givinostat was dissolved in filtered tap water and was administered in drinking water (throughout 24 h) for 105 days at the dose of 1, 5, 10, and 37.5 mg/kg/day, according to a daily estimate of water consumption of 4 ml/mouse/day. Water consumption was weekly monitored throughout the entire duration of the study weighing the bottle of each cage (maximum 4 mice per cage). Prednisone and Deflazacort powder (Sigma-Aldrich) was dissolved in 2% DMSO (Sigma-Aldrich) and diluted in sterile saline on injection days. Both drugs were administered weekly (for 15 weeks) by i.p. injection at the dose of 1 mg/kg in a volume of 10 mL/kg. Givinostat and steroid treatments started on days 7 and 9 of the experimental plan, respectively (see Additional Figure 1B). All mice were monitored daily and tolerability was evaluated on the basis of BW and clinical signs.
(§4) In both efficacy studies, the effectiveness of treatments was evaluated every week by measuring the forelimb strength by a grip strength meter (Ugo Basile SRL, Italy). BW of mdx (see Additional Figure 2) and D2.B10 mice (see Additional Figure 3) was also measured in order to normalize the absolute grip strength of each mouse with respect to its BW. The protocol provides 5 measurements for each mouse (the procedure was compliant with the standard operating procedures of TREAT–NMD Neuromuscular Network). The highest recorded value of maximal normalized strength (FNmax) obtained for each mouse at all the time points (from T0 to T15) was used for further analysis.
After taking baseline readings for behavioral assays (FNmax and distance run by the animals), mice were re-randomized based on these two parameters, also considering the previous randomization performed on their BW.
The grip strength and run to exhaustion tests were performed during the light-cycle phase, in the early hours of the morning (8:00–11:30 am). […]

[4] = Body weight of D2.B10 mice; assay type: in vivo, mouse (D2.B10-Dmd^mdx/J); conditions: mouse, in vivo
Protocol: as §3, with “Givinostat and steroid treatments started on days 7 and 9 of the experimental plan, respectively (see Additional Figure 1B).” left out
as §4, with “The protocol provides 5 measurements for each mouse (the procedure was compliant with the standard operating procedures of TREAT–NMD Neuromuscular Network).” left out

D2.B10 mice [5] = assay: Treadmill run to exhaustion test in D2.B10 mice; assay type: in vivo, mouse (D2.B10-Dmd^mdx/J); conditions: Deflazacort, prednisone 1 mg/kg, lower doses of Givinostat
Excerpt: as §2, §3
Run to exhaustion performance of mdx and D2.B10 mice was evaluated every 14 or 21 days, respectively, using a treadmill apparatus (Ugo Basile SRL, Italy). The exhaustion protocol consisted in an initially horizontal running at 5 m/min for 5 min after which the speed was increased 1 m/min every minute until exhaustion (the procedure was compliant with the standard operating procedures of TREAT–NMD Neuromuscular Network). […]
After taking baseline readings for behavioral assays (FNmax and distance run by the animals), mice were re-randomized based on these two parameters, also considering the previous randomization performed on their BW. […]

[6] = design: method as in PMID 15269190; conditions: mice, i.p. dosing; cited from earlier work
[7] = design: method as in printed; conditions: mice; ref not given; cited from earlier work
mdx mouse model = system: mdx mouse model; design: method as in PMID 21137017; conditions: i.p.; cited from earlier work

SMILES: CC(=O)OCC(=O)[C@@]12N=C(C)O[C@@H]1C[C@H]1[C@@H]3CCC4=CC(=O)C=C[C@]4(C)[C@H]3[C@@H](O)C[C@@]12C [Deflazacort]
- Effect of steroid on cross-sectional area and centralized nuclei (D2.B10 mice [1]): unable to affect cross-sectional area or the number of centralized nuclei
- Effect of steroid on fibrosis, summary (D2.B10 mice [2]; 1 mg/kg i.p. weekly): effective only in TA
- Reduction of fibrosis in DIA (D2.B10 mice [2]; T8): no significant effect
- Reduction of fibrosis in TA (D2.B10 mice [2]; T8, Givinostat 37.5 mg/kg, steroids 1 mg/kg, vs vehicle): about 22%
- Effect on fibrosis in GAS (D2.B10 mice [2]; T16): No significant effect
- Effect of steroid on FNmax in comparison (D2.B10 mice [3]; 1 mg/kg i.p. weekly, all the treatment period): lower and not significantly different from prednisone
- Time interval of significant FNmax improvement (D2.B10 mice [3]; Deflazacort 1 mg/kg i.p. weekly, Givinostat 1 mg/kg): from day 28 to day 90
- Body weight vs vehicle-treated mice [4]: no significant differences
- Effect on distance run, significance (D2.B10 mice [5]): not statistically significant

SMILES: CC(/C=C/C(=O)NO)=C\[C@@H](C)C(=O)c1ccc(N(C)C)cc1 [TSA, trichostatin A]
- Half-life [6]: 6.3 min
- Peak plasma concentrations [6]: micromolar

SMILES: O=C(CCCCCCC(=O)Nc1ccccc1)NO [Vorinostat]
- Oral bioavailability [7]: very poor oral bioavailability
- Dose of peak functional and histologic effects (bell-shaped dose-response curve) (mdx mouse model): 1.2 mg/kg
